Results as given in patent US20210087565A1, “ANTISENSE ANTIBIOTICS AND BACTERIAL SECRETION BASED DELIVERY SYSTEM TO ELIMINATE DRUG-RESISTANT BACTERIA” (priority 2018, published 2021).
Entries after “also recorded” stand apart in the source; their conditions may differ.

How the values were obtained:
[1] = test system: 60 nucleotide single-stranded DNA fragments containing the complementation site; experiment: Electrophoretic mobility shift assay (EMSA); format: binding; conditions: PNA 1 μM, DNA fragments 500 nM; complementary vs nonsense DNA
Description: FIG. 5. PNA binding to off-target start codons. (A) The set of potential PNA candidates identified from the Keio collection were screened against the entire E. coli MG1655 genome to identify the distribution of off-target alignments when allowing for zero base mismatches in the alignment (left) and one base mismatch (right). In the 0-basepair mismatch analysis, all chosen PNAs that were tested had no other start codon alignments within the genome, whereas in the one base mismatch alignment, the number of start codon alignments distribute across zero to five alignments. (B) Electrophoretic mobility shift assay (EMSA) depicting 60 nucleotide single-stranded DNA fragments containing the complementation site for their corresponding PNA. Nonsense DNA was a random 60 nucleotide single-stranded DNA sequence that contained no complementation sites for PNA binding. […] Bands corresponding to PNA+complementary DNA are shifted above the unbound DNA (red triangles). Corresponding PNA+nonsense DNA bands are seen in lanes 3 and 5, with lane 3 having slight cross-over bands coming from lane 2. All lanes are from the same gel.
Gel Shift Mobility Assay: Synthetic DNA oligonucleotides that are 57-60 nucleotides in length were incubated with their respective PNA binding site at 37° C. overnight. The concentration of the DNA fragments was held at 500 nM, while the PNA was always in excess at 1 μM. […]

HeLa cells = experiment: Cytotoxicity in HeLa cells (lactate dehydrogenase assay); format: cell-based, human; conditions: for lethality to human epithelial cells (in words): HeLa, range of concentrations
Description: FIG. 12. Cytotoxicity measurement of varying concentration of PNA in HeLa cells. HeLa cells were plated on tissue culture treated 96-well plates at 4,500 cells per well. Varying concentrations of α-lexA and α-nonsense were added exogenously after 24 hours of growth and incubated in growth conditions for 18 hours. Cytotoxicity was measured using a lactate dehydrogenase assay and absorbance read at 450 nm with a blank (growth media with lactate dehydrogenase assay) subtracted. […] Error bars are standard deviation.

[2] = test system: intracellular SL1344 S. typhimurium in HeLa cells; experiment: Salmonella infection of HeLa cells and PNA treatment (T3SS-PNA or naked PNA); format: cell-based, Salmonella enterica serovar typhimurium; conditions: for reduction of intra-epithelial Salmonella CFU: PNA delivered via the T3SS, vs no treatment, p<0.05; for reduction of intra-epithelial Salmonella CFU / clearing of infection (in words): 10 μM, 18 hours; for GFP expressing Salmonella in images (in words): T3SS-PNA treatment, compared to no treatment or Naked-PNA treatment; for clearing of infection (in words): naked PNA added exogenously after infection, compared to no treatment
Description: FIG. 4. Establishing the bacterial Type III secretion system (T3SS) for PNA transport. (A) Schematic showing enhancement of PNA delivery into HeLa cells using the bacterial T3SS of Salmonella enterica serovar typhimurium (STm) for treatment of an intracellular infection of STm. HeLa cells were seeded and allowed to grow for 24 h. SL1344 GFP STm was added at a MOI of 10:1 and allowed to infect HeLa cells for 45 min following two separate conditions: (Top) No PNA is added during this time, termed here as Naked PNA treatment, (Bottom) PNA is added at the time of infection at t=0 to utilize the T3SS, termed here as T3SS-PNA treatment. The T3SS-PNAs enter Salmonella during 45 minutes of incubation due to transport enhanced by the cell penetrating peptides, followed by entry into host cells via T3SS encoding and PNA carrying STm. (Top and Bottom). After 45 minutes infected HeLa cells are washed and treated with media containing gentamicin for 75 minutes to kill extracellular bacteria. The cells are then incubated for 18 h with media containing gentamicin following the two separate conditions: (Top) PNA supplied after infection for Naked PNA treatment. (Bottom) No PNA is added after infection. Post 18 hours of treatment HeLa cells are fixed for imaging or lysed for Colony forming Unit (CFU) analysis. (B) Representative images of uninfected (Top left), and infected HeLa cells without treatment (Bottom left). Top (right) panels show representative images of infected HeLa cells following Naked-PNA treatment. Bottom (right) panels show representative images of infected HeLa cells following T3SS-PNA treatment. HeLa cells are stained with nucleic stain DAPI (blue), and membrane stain Phalloidin (pink), and green pixels represent intracellular SL1344 S. typhimurium fluorescing GFP (green). […] (C) Intracellular S. typhimurium load (CFU/mL) in presence or absence of treatment. Significant reduction in STm CFU in HeLa cells when PNA is delivered using T3SS.
For all cases, HeLa cells were infected at time t=0 with SL1344 for 45 minutes with a multiplicity of infection (MOI) of bacteria to HeLa cells of approximately 10:1. For the T3SS-PNA treatment method HeLa cells were co-incubated with SL1344 and either α-rpsD or α-lexA for 45 minutes, allowing the PNA to enter the Salmonella while simultaneously transporting the PNA-carrying Salmonella into the HeLa cells using the T3SS. […] Post-infection, the cells were washed and incubated with media containing gentamicin for a period of 75 minutes to remove any extracellular bacteria and/or PNA. For all treatments the media was then replaced with fresh gentamicin containing growth medium, with the naked PNA treatment condition also containing 10 μM PNA, and incubated an additional 18 (FIG. 4A). At the end of 18 hours, cultures were analyzed via imaging or measured by intra-epithelial colony forming units (CFU). […] The present inventors obtained similar results in an infection of mouse osteoblast cells (FIG. 11B).
Salmonella infection of HeLa cells and PNA treatment: For a single infection (FIG. 4), SL1344 cultures were inoculated from a single colony on solid media in to 1 mL of LB media and grown for 16 hours at 37° C. with shaking. Cultures were diluted 1:10 and regrown in LB prior to infection. Bacteria were washed thrice with PBS, optical density at 600 nm measured, and diluted to a multiplicity of infection (MOI) of 10 in Dulbecco PBS (DPBS). MOI is calculated based on an established optical density and colony forming unit (CFU) calibration, and the number of mammalian cells per well at the time of infection approximated based on their doubling time. Mammalian cells were washed thrice with Dulbecco's Phosphate-Buffered Saline (DPBS, Fisher Scientific) prior to infection for 45 minutes 37° C. with controlled humidity. […]

Substance | binding specificity by EMSA (in words) [1] | concentration up to which no significant difference in cytotoxicity to negative control was seen (HeLa cells; HeLa cells, 18 hours, lactate dehydrogenase assay, p>0.05) | lethality to human epithelial cells (in words) (HeLa cells) | reduction of intra-epithelial Salmonella CFU [2] | GFP expressing Salmonella in images (in words) [2] | clearing of infection (in words) [2]
α-lexA: 12-mer antisense PNA cGGAATGAAAGC (SEQ ID NO. 17) targeting lexA, conjugated to (KFF)3K cell penetrating peptide via AEEA-linker (antisense CGGAATGAAAGC; all peptide nucleic acid (PNA); (KFF)3K cell-penetrating peptide attached via AEEA linker) | showed specificity to their targets; also recorded: show binding specificity to their target | up to 40 μM | not found to be lethal | ~69±8% | evident decrease in GFP expressing Salmonella | not effective in clearing an infection
α-rpsD: 12-mer antisense PNA AGAAAATGGCAA (SEQ ID NO. 19) targeting rpsD, conjugated to (KFF)3K cell penetrating peptide via AEEA-linker (all peptide nucleic acid (PNA); (KFF)3K cell-penetrating peptide attached via AEEA linker) | showed specificity to their targets; also recorded: show binding specificity to their target |  | not found to be lethal | ~82±13% | evident decrease in GFP expressing Salmonella | not effective in clearing an infection
